The source of these data is PMC10529921, “Structure–Activity Relationship of Novel ACE Inhibitory Undecapeptides from Stropharia rugosoannulata by Molecular Interactions and Activity Analyses” (Foods, 2023).

Series [1] has as its system SHR rats. Kind of series: Organ coefficients in SHR rats. It counts as in vivo, rat (SHR). To be noted: 10 mg/kg, single gavage.
Protocol: (§1) Eleven-week-old male SHR rats and Wistar rats (SiPeiFu (Suzhou) Biotechnology Co., Ltd., Suzhou, China) weighing 200–250 g were used. After 7 d of acclimatization feeding, SHR rats and Wistar rats were randomly grouped into 6 rats per group for a single gavage administration treatment. The undecapeptide and the commercial antihypertensive drug Benazepril hydrochloride were administered in a gavage dose of 10 mg/kg body weight (the recommended dose of Benazepril hydrochloride). SHR rats with regular saline treatment were used as the blank control group. The systolic blood pressure (SBP) and diastolic blood pressure (DBP) of rats were monitored by the Softron BP system (Softron BP-2010A, Tokyo, Japan) at 0, 2, 4, 6, 8, and 24 h after drug administration. At the end of the treatment, the organ coefficients were calculated (organ weight as a percentage of the body weight of the rat, mg/g).
(§2) Data from the in vivo tests were presented as means ± standard deviations of 6 measurements.
For another series, the system named is Wistar rats. To be noted: 10 mg/kg, single gavage; low body weight in two rats given as main reason.
Series [2] deals with SHR rats. As to the kind of experiment: Antihypertensive effect after single gavage in SHR rats. It counts as in vivo, rat (SHR). To be noted: n = 6.
Protocol: as §1, §2
[3] abbreviates: 10 mg/kg, most significant effect at 8 h, mean ± SD.

Counter-ions that a name gives are not always drawn.

Protocol for Wistar rats: as §1, §2

Turning to `CC(C)C[C@H](NC(=O)[C@@H]1CCCN1C(=O)[C@H](CCCNC(=N)N)NC(=O)[C@H](CC(C)C)NC(=O)[C@H](CCCNC(=N)N)NC(=O)[C@H](CC(=O)O)NC(=O)[C@H](Cc1ccc(O)cc1)NC(=O)[C@H](CC(=O)O)NC(=O)[C@H](CCC(=O)O)NC(=O)[C@H](CCC(N)=O)NC(=O)CN)C(=O)O`, the “Effect on organs, SHR” value in the series on SHR rats [1] is listed as “less impact on the organs of SHR rats”. Besides, in the series on SHR rats [1] (significance p < 0.05), the “Heart organ coefficient vs blank control, SHR” value is recorded as “no significant difference”. Also, in the series on Wistar rats, the “Kidney organ coefficient, Wistar” value was “considerably higher”.

In the case of `CCOC(=O)[C@H](CCc1ccccc1)N[C@H]1CCc2ccccc2N(CC(=O)O)C1=O` [Benazepril hydrochloride], the “Blood pressure lowering (SBP and DBP), SHR” value in the series on SHR rats [2] (10 mg/kg, 2, 4, 6 and 8 h) was “better blood pressure lowering effects after 2, 4, 6, and 8 h”. Besides, in the series with SHR rats [2] (setting [3]), the “Decrease in DBP, SHR” value stood at 39.17 ± 1.81 mmHg and the “Decrease in SBP, SHR” value is 54.94 ± 1.79 mmHg. Moreover, in the series with SHR rats [2] (10 mg/kg), the “Rebound of blood pressure values, SHR” value was “began to rebound after 8 h” and the “Time of most significant blood pressure lowering effect, SHR” value was 8 h.
